Source: patent US20230384330A1, “COMPOSITIONS AND METHODS RELATING TO THE IDENTIFICATION AND TREATMENT OF IMMUNOTHROMBOTIC CONDITIONS” (THE REGENTS OF THE UNIVERSITY OF MICHIGAN, priority 2020, published 2023)
Entries after “also recorded” stand apart in the source; their conditions may differ.

Columns and labels:
CD142/TF [1] = assay: CD142/TF expression in PBMC stimulated with TLR ligands, mass cytometry; format: cell-based, human; settings: PBMC from HC stimulated 4 h, vs no treated (NT) controls
Experimental: FIGS. 12A-12C: Inflammatory mediators increase CD142/TF expression and activity in monocytes. A) PBMC were isolated from HC and stimulated with Pam2CSK4(TLR2), Poly(I:C) (TLR3), and LPS (TLR4) for 4 h. […] Circles represent CD14+ monocytes. B) PBMC were isolated and stimulated with LPS and Ang II (vascular activator) and TF activity was quantified based on the ability of TF/FVIIa to activate FX to factor Xa. The amidolytic activity of the TF/FVIIa complex is quantitated by the amount of FXa produced using a FXa substrate which releases a chromophore upon cleavage. *p<0.05. C) To probe for the mechanisms that regulate TF expression in circulating monocytes, PBMC were isolated and stimulated with LPS with or without Annexin V (AnnV) to block apoptotic sensing (through masking of PS on target cells/particles) in monocytes. […] Results representative of 3 independent experiments.
To determine if inflammatory mediators can drive monocyte TF expression, CD14+ monocytes were isolated from PBMCs and stimulated with TLR ligands (Pam2Csk4; Poly(I:C); LPS) for 4 hours.
Measurement of inflammatory mediated TF expression. To determine if inflammatory mediators can drive monocyte TF expression, CD14+ monocytes were isolated from peripheral blood mononuclear cells (PBMC) and were stimulated with TLR ligands (Pam2Csk4; Poly(I:C); LPS) for 4 hours. To assess if monocyte-bound TF is active, a FXa activity assay was used. CD14+ monocytes were stimulated with LPS and FXa activity was assessed as a marker of TF activity.

STAT1 = assay: Signal pathway activation in monocytes/PBMC treated with LPS and heparin, microfluidic proteomics (phospho-STAT1); format: cell-based, human; settings: LPS 1 ug/ml 4 h cotreated with heparin 10 u/ml, vs LPS alone
p-p65 and p-PKC = assay: Signal pathway activation in CD14+ monocytes treated with LPS and heparin, microfluidic proteomics (p-p65, p-PKC); format: cell-based, human; settings: LPS 1 ug/ml 4 h and heparin 10 u/ml, between groups
Experimental: (§1) FIGS. 3A-3B: Heparin augments type I IFN/STAT1 signaling and tends to blunt CD142/TF transcriptional induction in response to LPS. A) CD14+ monocytes were stimulated with LPS (1 ug/ml; 4 h) and heparin (Hep) (10 u/ml) and signal pathway activation was probed using microfluidic proteomics. […] However, phospo-STAT1 activation was augmented in monocytes cotreated with LPS and Hep. Normalized activation determined by normalizing phospho proteins to total protein. B) qRT-PCR of CD14+ monocytes treated with LPS with and without Hep. […] Fold-change determined normalizing to GAPDH and to NT groups. *p<0.05; #p=0.07
PBMC treatment and stimulation. Approximately 10 million cells were equally divided into 4 fractions and treated with the following (for Hep experiments): 1) Hep (1.5 U/mL), 2) LPS (1 μg/mL), 3) LPS+Hep (1 μg/mL LPS with 1.5 U/mL Hep), and 4) RPMI medium alone. All treatments were performed for 2 hours in suspension at 37° C. and 5% CO2 with gentle vortexing every 30 minutes to prevent cell sedimentation. After 2-hour incubation, cells were centrifuged, and supernatants were collected. Cells were then resuspended in 1 mL PBS (without Ca^2+ and Mg ^2+) for downstream analysis

CD142/TF [2] = assay: qRT-PCR of CD142/TF in CD14+ monocytes treated with LPS with and without heparin; format: cell-based, human
Experimental: as §1
PCR gene expression assay. RNA was then eluted in 32 uL RNase free water and concentration and purity were measured using Nanodrop. Applied Biosystems High-Capacity cDNA Reverse Transcription kit was used to convert RNA into cDNA for qPCR per the manufacturer's instructions. PCR was performed in 96 well plate using Taqman master mix and Taqman primers. 1× GAPDH-VIC and 1× target gene-FAM was used for each PCR reaction as housekeeping control gene and target gene respectively (total of 20 μL reaction volume). “No treatment control” is used to normalize each target gene expression for analysis of experimental groups.

PBMC = assay: Signaling pathway activation and inflammatory transcriptional programs in PBMC, heparin alone; format: cell-based, human
TF/FVIIa complex = assay: Tissue factor activity assay (TF/FVIIa activation of FX to FXa, chromogenic substrate) in PBMC; format: cell-based, human
Experimental: (§2) FIGS. 2A-2B: Monocytes activated by inflammatory stimuli increase TF/CD142 expression and activity. PBMC were isolated from healthy controls and stimulated with LPS (1 ug/ml for 4 h) and compared with no treatment (NT) controls. […] B) Tissue factor activity was assessed in both cells and supernatants in PBMC treated with LPS (1 ug/ml for 4 h). The tissue factor activity was quantified based on the ability of TF/FVIIa to activate FX to factor Xa. The amidolytic activity of the TF/FVIIa complex is quantitated by the amount of FXa produced using a highly specific FXa substrate which releases a chromophore upon cleavage. *p<0.05.
FIGS. 5A-5C: Annexin V peptide pretreatment blocks LPS induction of CD142/Tissue factor and CD142/Tissue factor activity. PBMC were pre-treated for 1 hr with Annexin V (10 ug/ml) or PBS and then stimulated with LPS (1 ug/ml) for 4 hours. PBMC were analyzed with either flow cytometry or tissue factor activity assay. A) Representative SSC vs. FSC gating strategy for Monocytes and Lymphocytes; B) CD142/Tissue factor was assessed by flow cytometry. […]
Active TF catalyzes the conversion of factor X to Xa; TF activity in plasma, microvesicles, and monocytes were measured by quantifying factor Xa activity using the fluorogenic factor Xa substrate (Abcam). TF activity was quantified based on the ability of TF/FVIIa to activate FX to FXa. […]

CD142/Tissue factor = CD142/Tissue factor expression on PBMC populations by flow cytometry; format: cell-based, human; settings: for CD142 expression (percent positive CD142+) in monocytes and granulocytes: PBMCs, 1 ug/mL LPS or 155 ug/mL LpA, 4 hours; for CD142/Tissue factor induction by LPS: PBMC pre-treated 1 hr with Annexin V 10 ug/ml, then LPS 1 ug/ml 4 hours
Experimental: as §2
FIGS. 5A-5C: Annexin V peptide pretreatment blocks LPS induction of CD142/Tissue factor and CD142/Tissue factor activity. PBMC were pre-treated for 1 hr with Annexin V (10 ug/ml) or PBS and then stimulated with LPS (1 ug/ml) for 4 hours. PBMC were analyzed with either flow cytometry or tissue factor activity assay. A) Representative SSC vs. FSC gating strategy for Monocytes and Lymphocytes; B) CD142/Tissue factor was assessed by flow cytometry. Annexin V pre-treatment blocks CD142/Tissue factor induction by LPS. C). CD142/Tissue factor activity using substrate cleavage and FXa generation. Results are representative of three independent experiments. *p<0.05
PBMCs were isolated and treated with 1 ug/mL LPS, 155 ug/mL LpA, or a combination of the above for 4 hours with gentle vortexing every 30 minutes. Cells were blocked with Tru-Stain FcX for 10 minutes and then treated with human anti CD142-PE for 30 minutes on ice. Cells were then analyzed via flow cytometry. (A) Representative FSC vs. SSC gating strategy. (B) Percent positive CD142+ for lymphocytes. (C) Percent positive CD142+ for monocytes. (D) Percent positive CD142+ for granulocytes. N=3. *p-value<0.0001 (ANOVA).

NFκB = NFκB activation in THP1-Dual monocytes (SEAP, QUANTI-Blue assay); format: cell-based, human; settings: 24 h, 77.5 ug/mL Lp(a)
Experimental: FIG. 10: Lp(a) increases NFκB induction on THP1-Dual monocytes; addition of TLR2 decreases activation effect of Lp(a). THP1-Dual monocytes stimulated for 24 h with 77.5 ug/mL Lp(a), 77.5 μg/mL Lp(a)+10 μg/mL TR2, 77.5 μg/mL Lp(a)+10 μg/mL TR4, and 100 ng/mL Pam2CSK4. After 24 h stimulation, supernatant was collected and NFκB activation was assessed by measuring the levels of SEAP using QUANTI-Blue assay. Levels of SEAP were determined by reading the optical density at 640 nm. *p-value<0.0001 (ANOVA).
THP1-Dual monocytes stimulated for 24 h with 77.5 ug/mL Lp(a), 77.5 ug/mL Lp(a)+10 ug/ml TLR2, 77.5 ug/ml Lp(a)+10 ug/ml TLR4, and 100 ng/mL Pam2CSK4. After 24 h stimulation, supernatant was collected and NFkB activation was assessed by measuring the levels of SEAP using QUANTI-Blue assay. Levels of SEAP were determined by reading the optical density at 640 nm. *p-value<0.0001 (ANOVA). […] THP1-Dual monocytes stimulated for 24 h with 77.5 ug/mL Lp(a), 77.5 ug/mL Lp(a)+10 ug/ml TLR2, 77.5 ug/ml LpA+10 ug/ml TLR4, and 100 ng/mL Pam2CSK4. After 24 h stimulation, supernatant was collected and IRF activation was assessed by measuring the levels of Lucia luciferase using QUANTI-Luc assay. Levels of Lucia luciferase were determined by measuring the relative light units (RLUs) in a luminometer at a 100 ms reading time.

Pam2CSK4
CD142/TF expression (viSNE plots, CD14+ monocytes) (CD142/TF [1]): increased CD142/TF expression

Poly(I:C)
CD142/TF expression (viSNE plots, CD14+ monocytes) (CD142/TF [1]): increased CD142/TF expression

heparin
phospho-STAT1 activation (phospho protein normalized to total protein) (STAT1): augmented; also recorded: increases in STAT1 activation
p-p65 and p-PKC activation (p-p65 and p-PKC): no differences
transcriptional induction of CD142/TF by LPS (CD142/TF [2]; cotreatment with LPS and heparin, fold-change normalized to GAPDH and NT, #p=0.07): trend to blunted transcriptional expression; also recorded: seemed to blunt
signaling pathway activation or inflammatory transcriptional programs (PBMC): no effects
cytotoxicity (PBMCs): not cytotoxic

lipopolysaccharide [LPS]
TF activity (FXa production) (TF/FVIIa complex; PBMC/monocytes stimulated with inflammatory stimulus, vs untreated): increases TF activity
CD142/TF transcriptional expression (CD142/TF [2]; LPS alone, CD14+ monocytes, vs NT): induced
CD142/TF expression in monocytes (CD142/Tissue factor; LPS 1 ug/ml, 2-4 h, vs no treatment (NT)): induce TF expression; also recorded: rapid and robust induction; also recorded: rapidly drives TF expression
CD142 expression (percent positive CD142+) in monocytes and granulocytes (CD142/Tissue factor): upregulated
TF induction in purified CD14+ Mϕ compared with bulk PBMC stimulation (CD142/Tissue factor; response to LPS): much less TF induction
CD142/TF expression (viSNE plots, CD14+ monocytes) (CD142/TF [1]): increased CD142/TF expression

lipoprotein (a) [Lp(a)]
NFκB induction (SEAP, optical density at 640 nm) (NFκB): increases
CD142 expression (percent positive CD142+) in monocytes and granulocytes (CD142/Tissue factor): upregulated

B1: Annexin V (protein, UniProt P08758 2-320, looked up)
Annexin A5: AQVLRGTVTDFPGFDERADAETLRKAMKGLGTDEESILTLLTSRSNAQRQEISAAFKTLFGRDLLDDLKSELTGKFEKLIVALMKPSRLYDAYELKHALKGAGTNEKVLTEIIASRTPEELRAIKQVYEEEYGSSLEDDVVGDTSGYYQRMLVVLLQANRDPDAGIDEAQVEQDAQALFQAGELKWGTDEEKFITIFGTRSVSHLRKVFDKYMTISGFQIEETIDRETSGNLEQLLLAVVKSIRSIPAYLAETLYYAMKGAGTDDHTLIRVMVSRSEIDLFNIRKEFRKNFATSLYSMIKGDTSGDYKKALLLLCGEDD
CD142/Tissue factor activity (FXa generation) induced by LPS (TF/FVIIa complex; PBMC pre-treated 1 hr with Annexin V 10 ug/ml, then LPS 1 ug/ml 4 hours): blocks
CD142/Tissue factor induction by LPS (CD142/Tissue factor): blocks
CD142/Tissue factor induction by LPS (CD142/Tissue factor; listed as AnnV): greatly reduced
CD142/Tissue factor induction by LPS (CD142/Tissue factor; listed as annexin V): dramatic blunting
